{
  "source": "patent EP4467141A1",
  "about": "“PYRAZOLO-QUINOLINES AS SELECTIVE INHIBITORS OF GENOTOXIC STRESS-INDUCED IKK/NF- KB PATHWAYS FOR CANCER THERAPY” (Max-Delbrück-Centrum für Molekulare Medizin in der …, priority 2023, dated 2024)",
  "assay_in_all_cases": "Kinase panel study",
  "type_in_all_cases": "biochemical",
  "conditions_in_all_cases": "read-out: Percentage of inhibition; for inhibition at 1 µM: 1000nM; for inhibition at 10 µM: 10000nM",
  "key": {"AMPK (A2/B1/G3)": {"target": "T1, AMPK (A2/B1/G3) (Homo sapiens, UniProt P54646)", "T1 construct": "purchased Thermo Fisher Scientific", "T1 sequence (P54646 whole entry)": "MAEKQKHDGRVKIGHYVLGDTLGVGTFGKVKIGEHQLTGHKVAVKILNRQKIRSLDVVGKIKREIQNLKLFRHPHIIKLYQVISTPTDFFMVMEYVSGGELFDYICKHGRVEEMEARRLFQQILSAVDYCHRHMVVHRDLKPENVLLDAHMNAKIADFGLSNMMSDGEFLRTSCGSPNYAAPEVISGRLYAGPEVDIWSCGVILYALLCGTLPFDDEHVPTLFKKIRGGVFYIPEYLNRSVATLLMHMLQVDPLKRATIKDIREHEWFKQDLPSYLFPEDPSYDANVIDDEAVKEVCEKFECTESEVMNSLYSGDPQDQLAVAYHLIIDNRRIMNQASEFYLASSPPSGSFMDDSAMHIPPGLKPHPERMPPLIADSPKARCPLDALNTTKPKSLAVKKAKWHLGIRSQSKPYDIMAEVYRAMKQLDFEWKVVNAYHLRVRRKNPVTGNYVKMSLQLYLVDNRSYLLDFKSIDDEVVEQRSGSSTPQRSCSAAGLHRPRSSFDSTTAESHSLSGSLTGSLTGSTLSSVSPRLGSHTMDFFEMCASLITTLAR", "T1 sequence (Q9Y478 whole entry partner)": "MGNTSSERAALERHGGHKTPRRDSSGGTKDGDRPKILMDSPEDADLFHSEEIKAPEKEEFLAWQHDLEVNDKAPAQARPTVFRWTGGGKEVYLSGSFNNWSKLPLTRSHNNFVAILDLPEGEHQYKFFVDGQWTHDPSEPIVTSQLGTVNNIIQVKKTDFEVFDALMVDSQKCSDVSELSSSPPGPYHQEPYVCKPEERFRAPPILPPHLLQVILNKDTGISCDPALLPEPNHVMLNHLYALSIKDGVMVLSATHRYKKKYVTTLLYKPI", "T1 sequence (Q9UGI9 whole entry partner)": "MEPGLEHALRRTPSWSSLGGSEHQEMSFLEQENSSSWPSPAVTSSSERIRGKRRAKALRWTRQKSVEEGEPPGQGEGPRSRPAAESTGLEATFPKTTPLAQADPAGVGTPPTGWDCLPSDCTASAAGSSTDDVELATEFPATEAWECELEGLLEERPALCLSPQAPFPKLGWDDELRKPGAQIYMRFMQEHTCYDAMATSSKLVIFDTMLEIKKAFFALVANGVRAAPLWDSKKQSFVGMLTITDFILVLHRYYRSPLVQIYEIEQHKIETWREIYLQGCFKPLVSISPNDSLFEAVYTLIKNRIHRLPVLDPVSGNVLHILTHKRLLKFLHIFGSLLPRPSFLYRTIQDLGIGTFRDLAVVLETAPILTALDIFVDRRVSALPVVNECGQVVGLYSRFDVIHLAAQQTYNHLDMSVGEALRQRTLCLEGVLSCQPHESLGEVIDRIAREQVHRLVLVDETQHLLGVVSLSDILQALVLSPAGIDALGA", "summary_of_the_method": "(§1)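 Lead compounds and derivatives were profiled by ZLyte or Adapta in vitro kinase assays. Each value reports inhibition percentage at one of two concentrations, 1 µM or 10 µM.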"}, "CAMK2A (CaMKII alpha)": {"target": "T2, CAMK2A (CaMKII alpha) (Homo sapiens, UniProt Q9UQM7)", "T2 construct": "purchased Thermo Fisher Scientific", "summary_of_the_method": "as §1"}, "CDK4/cyclin D1": {"target": "T3, CDK4/cyclin D1 (Homo sapiens, UniProt P11802)", "T3 construct": "purchased Thermo Fisher Scientific", "T3 sequence (P11802 whole entry)": "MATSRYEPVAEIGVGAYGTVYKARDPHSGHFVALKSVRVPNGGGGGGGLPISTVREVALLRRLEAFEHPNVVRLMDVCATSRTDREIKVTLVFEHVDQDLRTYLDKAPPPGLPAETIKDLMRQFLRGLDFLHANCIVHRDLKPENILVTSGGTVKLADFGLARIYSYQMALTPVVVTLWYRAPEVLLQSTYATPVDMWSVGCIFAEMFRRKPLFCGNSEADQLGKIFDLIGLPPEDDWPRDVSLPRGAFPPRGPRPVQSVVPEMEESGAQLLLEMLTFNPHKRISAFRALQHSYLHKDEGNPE", "T3 sequence (P24385 whole entry partner)": "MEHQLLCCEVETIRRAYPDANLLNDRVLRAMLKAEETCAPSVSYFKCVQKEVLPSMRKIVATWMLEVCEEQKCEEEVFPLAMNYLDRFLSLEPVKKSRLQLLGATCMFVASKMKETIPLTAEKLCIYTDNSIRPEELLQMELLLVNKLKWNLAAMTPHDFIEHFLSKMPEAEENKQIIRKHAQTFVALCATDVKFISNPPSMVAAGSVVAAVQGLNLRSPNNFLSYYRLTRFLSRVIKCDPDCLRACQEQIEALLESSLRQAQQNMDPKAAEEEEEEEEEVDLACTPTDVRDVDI", "summary_of_the_method": "as §1"}, "FES (FPS)": {"target": "T4, FES (FPS) (Homo sapiens, UniProt P07332)", "T4 construct": "purchased Thermo Fisher Scientific", "T4 sequence (P07332 whole entry)": "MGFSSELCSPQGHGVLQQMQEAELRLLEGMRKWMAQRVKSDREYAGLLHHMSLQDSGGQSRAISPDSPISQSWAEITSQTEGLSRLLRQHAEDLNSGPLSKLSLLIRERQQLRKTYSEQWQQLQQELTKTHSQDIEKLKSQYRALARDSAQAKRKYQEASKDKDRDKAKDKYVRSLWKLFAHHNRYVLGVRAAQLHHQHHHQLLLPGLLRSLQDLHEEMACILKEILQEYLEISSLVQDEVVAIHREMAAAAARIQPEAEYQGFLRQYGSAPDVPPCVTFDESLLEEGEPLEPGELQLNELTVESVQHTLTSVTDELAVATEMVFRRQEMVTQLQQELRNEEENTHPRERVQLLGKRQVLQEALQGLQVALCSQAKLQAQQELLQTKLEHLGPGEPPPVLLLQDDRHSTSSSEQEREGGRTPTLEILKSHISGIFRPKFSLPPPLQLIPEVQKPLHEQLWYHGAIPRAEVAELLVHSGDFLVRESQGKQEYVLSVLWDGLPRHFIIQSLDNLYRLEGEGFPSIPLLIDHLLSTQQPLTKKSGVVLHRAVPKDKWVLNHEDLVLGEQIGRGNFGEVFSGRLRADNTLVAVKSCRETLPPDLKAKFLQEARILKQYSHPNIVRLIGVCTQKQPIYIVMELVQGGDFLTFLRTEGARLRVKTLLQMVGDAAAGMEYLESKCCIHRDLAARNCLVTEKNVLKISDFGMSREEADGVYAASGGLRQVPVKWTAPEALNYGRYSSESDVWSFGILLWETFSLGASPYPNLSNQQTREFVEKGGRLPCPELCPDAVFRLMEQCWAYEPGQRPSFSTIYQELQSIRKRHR", "summary_of_the_method": "as §1"}, "FYN": {"target": "T5, FYN (Homo sapiens, UniProt P06241)", "T5 construct": "purchased Thermo Fisher Scientific", "summary_of_the_method": "as §1"}, "GSK3B (GSK3 beta)": {"target": "T6, GSK3B (GSK3 beta) (Homo sapiens, UniProt P49841)", "T6 construct": "purchased Thermo Fisher Scientific", "T6 sequence (P49841 whole entry)": "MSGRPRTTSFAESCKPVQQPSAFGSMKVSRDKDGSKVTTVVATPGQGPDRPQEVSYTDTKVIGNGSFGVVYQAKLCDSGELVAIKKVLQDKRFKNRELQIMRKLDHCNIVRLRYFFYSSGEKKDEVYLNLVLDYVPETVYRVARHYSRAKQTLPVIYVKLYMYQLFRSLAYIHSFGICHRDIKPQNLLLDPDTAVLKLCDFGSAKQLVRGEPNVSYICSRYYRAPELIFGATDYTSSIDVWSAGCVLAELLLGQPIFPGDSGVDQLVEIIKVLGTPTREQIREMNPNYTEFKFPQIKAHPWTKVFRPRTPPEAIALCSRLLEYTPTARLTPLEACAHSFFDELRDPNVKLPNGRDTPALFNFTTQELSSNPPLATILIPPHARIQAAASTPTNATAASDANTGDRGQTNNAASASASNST", "summary_of_the_method": "as §1"}, "MARK2": {"target": "T7, MARK2 (Homo sapiens, UniProt Q7KZI7)", "T7 construct": "purchased Thermo Fisher Scientific", "T7 sequence (Q7KZI7 whole entry)": "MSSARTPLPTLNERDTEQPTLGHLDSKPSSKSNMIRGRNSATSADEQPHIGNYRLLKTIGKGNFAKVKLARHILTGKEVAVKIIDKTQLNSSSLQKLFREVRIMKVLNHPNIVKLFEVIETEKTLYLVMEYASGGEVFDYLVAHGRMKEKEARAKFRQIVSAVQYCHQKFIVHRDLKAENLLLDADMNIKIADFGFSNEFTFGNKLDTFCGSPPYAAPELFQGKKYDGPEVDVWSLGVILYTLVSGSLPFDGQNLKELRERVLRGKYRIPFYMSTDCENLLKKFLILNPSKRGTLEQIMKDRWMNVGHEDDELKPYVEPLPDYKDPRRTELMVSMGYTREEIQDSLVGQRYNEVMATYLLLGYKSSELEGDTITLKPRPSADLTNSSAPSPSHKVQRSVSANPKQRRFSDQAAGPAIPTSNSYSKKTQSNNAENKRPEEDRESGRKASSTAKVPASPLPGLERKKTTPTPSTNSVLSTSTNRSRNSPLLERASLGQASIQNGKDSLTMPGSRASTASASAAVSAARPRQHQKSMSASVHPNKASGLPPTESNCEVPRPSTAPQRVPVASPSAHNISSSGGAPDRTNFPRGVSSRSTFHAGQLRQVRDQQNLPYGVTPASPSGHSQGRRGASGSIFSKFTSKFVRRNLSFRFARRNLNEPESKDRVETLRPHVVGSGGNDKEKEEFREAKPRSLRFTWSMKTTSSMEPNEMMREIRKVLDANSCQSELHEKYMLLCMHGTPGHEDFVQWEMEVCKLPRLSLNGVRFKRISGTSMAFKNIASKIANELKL", "summary_of_the_method": "as §1"}, "PAK4": {"target": "T8, PAK4 (Homo sapiens, UniProt O96013)", "T8 construct": "purchased Thermo Fisher Scientific", "T8 sequence (O96013 whole entry)": "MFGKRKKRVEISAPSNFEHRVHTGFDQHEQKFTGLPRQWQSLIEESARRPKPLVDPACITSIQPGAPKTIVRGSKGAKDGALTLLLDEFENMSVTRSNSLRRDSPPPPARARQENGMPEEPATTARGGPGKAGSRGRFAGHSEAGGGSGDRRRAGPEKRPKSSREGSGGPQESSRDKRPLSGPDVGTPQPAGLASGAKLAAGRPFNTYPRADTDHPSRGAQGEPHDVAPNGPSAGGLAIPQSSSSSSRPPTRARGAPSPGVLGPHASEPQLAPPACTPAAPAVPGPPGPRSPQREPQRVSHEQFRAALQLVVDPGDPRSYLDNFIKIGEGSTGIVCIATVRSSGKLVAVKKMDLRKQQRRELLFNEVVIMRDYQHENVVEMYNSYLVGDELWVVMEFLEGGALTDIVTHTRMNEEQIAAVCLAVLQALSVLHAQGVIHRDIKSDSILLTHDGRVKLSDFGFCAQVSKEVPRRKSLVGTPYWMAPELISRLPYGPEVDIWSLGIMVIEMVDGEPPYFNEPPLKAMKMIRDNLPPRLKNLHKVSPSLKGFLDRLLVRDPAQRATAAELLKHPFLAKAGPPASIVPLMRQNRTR", "summary_of_the_method": "as §1"}, "SPHK2": {"target": "T9, SPHK2 (Homo sapiens, UniProt Q9NRA0)", "T9 construct": "purchased Thermo Fisher Scientific", "T9 sequence (Q9NRA0 1-654)": "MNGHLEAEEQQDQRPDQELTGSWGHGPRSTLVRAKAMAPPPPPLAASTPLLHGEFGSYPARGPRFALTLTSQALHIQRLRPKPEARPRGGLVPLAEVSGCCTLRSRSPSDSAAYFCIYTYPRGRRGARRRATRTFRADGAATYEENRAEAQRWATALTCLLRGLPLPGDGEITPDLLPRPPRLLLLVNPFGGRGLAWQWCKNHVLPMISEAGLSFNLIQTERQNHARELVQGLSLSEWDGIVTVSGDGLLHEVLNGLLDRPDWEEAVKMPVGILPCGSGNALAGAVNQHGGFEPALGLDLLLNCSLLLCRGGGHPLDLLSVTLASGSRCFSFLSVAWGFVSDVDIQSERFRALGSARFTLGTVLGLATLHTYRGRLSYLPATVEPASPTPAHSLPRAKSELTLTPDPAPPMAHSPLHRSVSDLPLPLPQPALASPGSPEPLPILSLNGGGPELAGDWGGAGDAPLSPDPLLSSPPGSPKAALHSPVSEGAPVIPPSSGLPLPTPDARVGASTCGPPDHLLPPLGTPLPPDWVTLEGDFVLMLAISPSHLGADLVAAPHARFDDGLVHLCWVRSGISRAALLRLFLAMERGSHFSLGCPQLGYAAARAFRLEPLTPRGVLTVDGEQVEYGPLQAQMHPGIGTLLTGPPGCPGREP", "summary_of_the_method": "as §1"}, "STK4 (MST1)": {"target": "T10, STK4 (MST1) (Homo sapiens, UniProt Q13043)", "T10 construct": "purchased Thermo Fisher Scientific", "T10 sequence (Q13043 1-487)": "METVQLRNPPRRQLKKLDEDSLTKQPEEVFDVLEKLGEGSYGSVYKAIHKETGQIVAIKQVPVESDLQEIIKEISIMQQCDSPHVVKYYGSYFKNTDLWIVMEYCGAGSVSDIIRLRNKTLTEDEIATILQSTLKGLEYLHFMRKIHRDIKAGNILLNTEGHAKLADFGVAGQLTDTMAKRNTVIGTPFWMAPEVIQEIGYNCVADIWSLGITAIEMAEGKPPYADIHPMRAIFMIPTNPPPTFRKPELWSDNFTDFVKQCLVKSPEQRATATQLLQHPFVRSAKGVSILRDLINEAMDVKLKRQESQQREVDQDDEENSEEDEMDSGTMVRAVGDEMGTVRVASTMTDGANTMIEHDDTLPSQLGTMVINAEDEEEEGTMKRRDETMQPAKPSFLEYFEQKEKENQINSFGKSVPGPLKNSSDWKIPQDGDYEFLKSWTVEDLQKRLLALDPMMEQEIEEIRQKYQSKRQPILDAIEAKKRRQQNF", "summary_of_the_method": "as §1"}},
  "data": [
    {"smiles": "COc1ccc2cc3c(N)nn(C(=O)c4cccc(N(C)C)c4)c3nc2c1", "note": "[MW05, (3-Amino-7-methoxypyrazolo[3,4-b]quinolin-1-yl)-[3-(dimethylamino)phenyl]methanone]", "values": [
      {"measurement": "inhibition at 1 µM", "setting": "AMPK (A2/B1/G3)", "result": 0, "unit": "%"},
      {"measurement": "inhibition at 10 µM", "setting": "AMPK (A2/B1/G3)", "result": -3, "unit": "%"},
      {"measurement": "inhibition at 1 µM", "setting": "CAMK2A (CaMKII alpha)", "result": 9, "unit": "%"},
      {"measurement": "inhibition at 10 µM", "setting": "CAMK2A (CaMKII alpha)", "result": 16, "unit": "%"},
      {"measurement": "inhibition at 1 µM", "setting": "CDK4/cyclin D1", "result": -3, "unit": "%"},
      {"measurement": "inhibition at 10 µM", "setting": "CDK4/cyclin D1", "result": -1, "unit": "%"},
      {"measurement": "inhibition at 1 µM", "setting": "FES (FPS)", "result": 1, "unit": "%"},
      {"measurement": "inhibition at 10 µM", "setting": "FES (FPS)", "result": -1, "unit": "%"},
      {"measurement": "inhibition at 1 µM", "setting": "FYN", "result": 4, "unit": "%"},
      {"measurement": "inhibition at 10 µM", "setting": "FYN", "result": 5, "unit": "%"},
      {"measurement": "inhibition at 1 µM", "setting": "GSK3B (GSK3 beta)", "result": 6, "unit": "%"},
      {"measurement": "inhibition at 10 µM", "setting": "GSK3B (GSK3 beta)", "result": 14, "unit": "%"},
      {"measurement": "inhibition at 1 µM", "setting": "MARK2", "result": 3, "unit": "%"},
      {"measurement": "inhibition at 10 µM", "setting": "MARK2", "result": 5, "unit": "%"},
      {"measurement": "inhibition at 1 µM", "setting": "PAK4", "result": 11, "unit": "%"},
      {"measurement": "inhibition at 10 µM", "setting": "PAK4", "result": 15, "unit": "%"},
      {"measurement": "inhibition at 1 µM", "setting": "SPHK2", "result": -7, "unit": "%"},
      {"measurement": "inhibition at 10 µM", "setting": "SPHK2", "result": -4, "unit": "%"},
      {"measurement": "inhibition at 1 µM", "setting": "STK4 (MST1)", "result": 4, "unit": "%"},
      {"measurement": "inhibition at 10 µM", "setting": "STK4 (MST1)", "result": 3, "unit": "%"}
    ]},
    {"smiles": "COc1ccc2c(c1OC)c(=O)n1c3ccc(O)cc3c3ccnc2c31", "note": "[MW01, 5-Hydroxy-10,11-dimethoxy-9H-benzo[c]indolo[3,2,1-ij][1,5]naphthyridin-9-one]", "values": [
      {"measurement": "inhibition at 1 µM", "setting": "AMPK (A2/B1/G3)", "result": -2, "unit": "%"},
      {"measurement": "inhibition at 10 µM", "setting": "AMPK (A2/B1/G3)", "result": 12, "unit": "%"},
      {"measurement": "inhibition at 1 µM", "setting": "CAMK2A (CaMKII alpha)", "result": 12, "unit": "%"},
      {"measurement": "inhibition at 10 µM", "setting": "CAMK2A (CaMKII alpha)", "result": 39, "unit": "%"},
      {"measurement": "inhibition at 1 µM", "setting": "CDK4/cyclin D1", "result": -8, "unit": "%"},
      {"measurement": "inhibition at 10 µM", "setting": "CDK4/cyclin D1", "result": -4, "unit": "%"},
      {"measurement": "inhibition at 1 µM", "setting": "FES (FPS)", "result": 0, "unit": "%"},
      {"measurement": "inhibition at 10 µM", "setting": "FES (FPS)", "result": 15, "unit": "%"},
      {"measurement": "inhibition at 1 µM", "setting": "FYN", "result": 3, "unit": "%"},
      {"measurement": "inhibition at 10 µM", "setting": "FYN", "result": 15, "unit": "%"},
      {"measurement": "inhibition at 1 µM", "setting": "GSK3B (GSK3 beta)", "result": 27, "unit": "%"},
      {"measurement": "inhibition at 10 µM", "setting": "GSK3B (GSK3 beta)", "result": 52, "unit": "%"},
      {"measurement": "inhibition at 1 µM", "setting": "MARK2", "result": 10, "unit": "%"},
      {"measurement": "inhibition at 10 µM", "setting": "MARK2", "result": 5, "unit": "%"},
      {"measurement": "inhibition at 1 µM", "setting": "PAK4", "result": 13, "unit": "%"},
      {"measurement": "inhibition at 10 µM", "setting": "PAK4", "result": 20, "unit": "%"},
      {"measurement": "inhibition at 1 µM", "setting": "SPHK2", "result": -16, "unit": "%"},
      {"measurement": "inhibition at 10 µM", "setting": "SPHK2", "result": -8, "unit": "%"},
      {"measurement": "inhibition at 1 µM", "setting": "STK4 (MST1)", "result": 4, "unit": "%"},
      {"measurement": "inhibition at 10 µM", "setting": "STK4 (MST1)", "result": 11, "unit": "%"}
    ]}
  ]
}
